From paper PMC5563081, “Modulating Protein-Protein Interactions of the Mitotic Polo-like Kinases to Target Mutant KRAS” (Cell Chemical Biology, 2017)
pKd: −log10 of the molar value.

Assays:
[1] = Pharmacokinetic study, oral administration in mice; type: in vivo, mouse
Protocol: Mice were dosed orally with 10mg/kg Poloppin-II, and blood samples were taken from 3 mice per time point, and frozen until all samples were available. Plasma was prepared from each sample and Poloppin-II levels analysed by a pre-established methodology (UHPLC-TOF MS using electrospray ionisation).

[2] = molecular target: T1, NanoLuc-PLK4 fusion protein (Homo sapiens, UniProt O00444); test: NanoLuc thermal shift assay; type: cell-based; details: compound at 100 μM
T1 construct: NanoLuc fused to the N-termini of full-length human PLK1, PLK2, PLK3, PLK4 or p38α MAPK; expressed in transfected cells; host or cells: HeLa, transient, digitonin-permeabilised
T1 sequence (O00444 1-970): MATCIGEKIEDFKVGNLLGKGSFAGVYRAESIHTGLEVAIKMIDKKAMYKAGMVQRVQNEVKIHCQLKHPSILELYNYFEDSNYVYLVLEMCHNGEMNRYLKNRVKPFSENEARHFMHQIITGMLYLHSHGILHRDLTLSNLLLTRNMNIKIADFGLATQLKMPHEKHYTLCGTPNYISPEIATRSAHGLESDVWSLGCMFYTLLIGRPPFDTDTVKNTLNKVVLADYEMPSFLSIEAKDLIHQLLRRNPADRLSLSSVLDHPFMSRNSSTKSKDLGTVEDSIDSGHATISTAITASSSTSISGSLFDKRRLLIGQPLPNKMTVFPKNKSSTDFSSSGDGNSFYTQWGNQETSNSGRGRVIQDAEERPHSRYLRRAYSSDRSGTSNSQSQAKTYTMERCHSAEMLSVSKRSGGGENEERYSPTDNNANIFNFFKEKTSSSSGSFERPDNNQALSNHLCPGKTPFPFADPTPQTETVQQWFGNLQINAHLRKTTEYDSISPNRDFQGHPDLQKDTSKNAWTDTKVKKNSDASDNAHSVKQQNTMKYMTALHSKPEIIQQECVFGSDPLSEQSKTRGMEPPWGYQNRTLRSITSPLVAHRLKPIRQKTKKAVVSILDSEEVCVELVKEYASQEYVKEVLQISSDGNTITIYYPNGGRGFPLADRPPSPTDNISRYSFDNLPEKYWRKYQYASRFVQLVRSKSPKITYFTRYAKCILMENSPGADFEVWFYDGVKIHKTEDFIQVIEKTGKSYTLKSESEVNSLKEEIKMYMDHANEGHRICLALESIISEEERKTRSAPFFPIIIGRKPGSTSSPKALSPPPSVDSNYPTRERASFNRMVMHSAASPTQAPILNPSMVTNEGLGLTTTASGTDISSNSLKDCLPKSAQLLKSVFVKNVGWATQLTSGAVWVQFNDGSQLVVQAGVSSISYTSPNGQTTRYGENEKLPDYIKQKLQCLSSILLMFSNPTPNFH
Protocol: (§1) HeLa cells were transfected with plasmids encoding NanoLuc fused to the N-termini of full-length human PLK1, PLK2, PLK3, PLK4 or p38α MAPK. Twenty-four h after transfection, the thermal stability of the fusion proteins was tested using a modified version of the assay protocol supplied by Promega. Briefly, cells were harvested by tyrpsinisation and centrifugation, counted, and resuspended to 200,000 cells/ml in 3mls of serum-free OptiMEM media. Cells were then permeabilised using with 50ug/ml digitonin in DMSO for 5 min and incubated with test compounds at 100uM, plus protease inhibitor cocktail (Promega G6521), in a final concentration of 5% DMSO for 1 h at 37°C. After incubation, 100 μl/well of cells were aliquoted into a 96-well, thin-walled PCR plate and then heated for 3 minutes using a pre-warmed MJ Tetrad DNA Engine set to run a temperature gradient of 42 to 66°C. The plates were then cooled to room temperature for 10 min, and then 80μl of each sample was transferred to a white-walled 96-well Nunc plate before NanoBRET™ NanoGlo Substrate diluted in Opti-MEM was added. NanoLuc enzyme activity was read out within 10 min using a BMG Clariostar plate reader.
(§2) Nanoluciferase enzyme activity of PLK1- or PLK4-Nanoluc fusion protein was analysed using GraphPad Prism. Data were normalised as follows: (treatment A RLU value at X°C temp/treatment A RLU value at 42°C temp) x 100. Using the Boltzmann sigmoidal equation, a curve was then fitted to the normalised data. From this non-linear fit, a V50 value was generated, which in this context represents the aggregation onset temperature (Tagg), at which 50% of the PLK1- or PLK4-Nanoluc fusion protein has aggregated.

[3] = molecular target: T2, NanoLuc-PLK1 fusion protein (Homo sapiens, UniProt P53350); test: NanoLuc thermal shift assay; type: cell-based; details: compound at 100 μM
T2 construct: NanoLuc fused to the N-termini of full-length human PLK1, PLK2, PLK3, PLK4 or p38α MAPK; expressed in transfected cells; host or cells: HeLa, transient, digitonin-permeabilised
Protocol: as §1, §2

PLK1 PBD = PLK1 PBD (Homo sapiens, UniProt P53350); test: Isothermal titration calorimetry; type: binding; parameters: In all titrations, PBDaa345-603 protein was used at 25 μM; GST (N, cleaved yes); made in house; host or cells: E. coli C41; details: ITC, 20 °C
Protocol: In all titrations, PBDaa345-603 protein was used at 25 μM and buffered in HEPES (50 mM, pH 7.4), NaCl (200 mM), and DTT (1mM). Protein was diluted into buffer with DMSO at 5% (v/v). Poloppin was prepared by diluting from DMSO stock into the same buffer containing DMSO at 5% (v/v). Great care was taken to match the concentration of DMSO in the ligand and protein samples as closely as possible. In a typical experiment, protein (25 μM) was loaded in the sample cell, and a total of 20 injections of 8μL were made at 2 min intervals from a 200 μL syringe rotating at 1000 rpm and loaded with ligand solution (0.5 mM). […] The thermodynamic parameters were obtained by fitting the data to a single-site binding model with a stoichiometry of 1. ITC experiments were performed at 20 °C with a MicroCal ITC200 instrument, and all data were analysed with the software implemented in Origin (version 7) ([Scott et al., 2015]).

T2 sequence (P53350 whole entry, the tested form may be a part): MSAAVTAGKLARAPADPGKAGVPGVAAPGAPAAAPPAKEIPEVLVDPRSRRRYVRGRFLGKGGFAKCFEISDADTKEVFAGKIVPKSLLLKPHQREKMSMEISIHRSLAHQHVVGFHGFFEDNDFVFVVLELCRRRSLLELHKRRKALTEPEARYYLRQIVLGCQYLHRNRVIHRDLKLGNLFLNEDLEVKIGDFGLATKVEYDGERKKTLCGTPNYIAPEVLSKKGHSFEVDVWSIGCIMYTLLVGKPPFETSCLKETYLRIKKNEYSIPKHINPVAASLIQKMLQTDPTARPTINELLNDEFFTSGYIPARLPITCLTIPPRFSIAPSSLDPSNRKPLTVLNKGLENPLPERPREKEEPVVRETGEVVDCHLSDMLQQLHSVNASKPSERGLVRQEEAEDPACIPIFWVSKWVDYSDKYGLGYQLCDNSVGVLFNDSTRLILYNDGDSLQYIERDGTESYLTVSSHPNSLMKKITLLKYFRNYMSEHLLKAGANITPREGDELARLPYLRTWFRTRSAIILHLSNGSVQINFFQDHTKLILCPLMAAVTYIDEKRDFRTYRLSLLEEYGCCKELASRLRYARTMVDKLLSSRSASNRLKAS
Chain of PLK1 PBD (P53350 345-603): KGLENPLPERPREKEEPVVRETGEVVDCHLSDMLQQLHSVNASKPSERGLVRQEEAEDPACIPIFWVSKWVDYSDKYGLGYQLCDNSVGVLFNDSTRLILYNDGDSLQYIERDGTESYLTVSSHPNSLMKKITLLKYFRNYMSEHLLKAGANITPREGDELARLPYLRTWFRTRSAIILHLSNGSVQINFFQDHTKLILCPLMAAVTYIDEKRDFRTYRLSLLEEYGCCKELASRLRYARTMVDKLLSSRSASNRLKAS

| Structure (SMILES) | bioavailability ([1]; mouse, plasma, 10 mg/kg oral) | clearance ([1]; mouse, plasma, oral, 10 mg/kg, read-out: calculated clearance) | Vd ([1]; mouse, plasma, oral, 10 mg/kg, read-out: volume of distribution) | half-life ([1]; mouse, plasma, per oral, 10 mg/kg) | time for which plasma concentration >100 nM is maintained ([1]; single oral dose of 10 mg/kg) | in vivo plasma concentration maintained ([1]; single oral dose of 10 mg/kg, for >24 hr) | thermal stability of NanoLuc-PLK4 [2] | thermal stability of NanoLuc-PLK1 [3] | pKd (PLK1 PBD) |
| --- | --- | --- | --- | --- | --- | --- | --- | --- | --- |
| CN(C)CCNC(=O)c1ccc(-c2ccc(-c3ccc(Cl)cc3)n2-c2ccccc2C(F)(F)F)cc1 [Poloppin-II] | > 90% | 17 mL/min/kg | 23 L/kg | 15 h | > 24 h | > 100 nM | engages | engages | – |
| O=C(O)CCc1ccc(-c2ccc(Br)cc2)n1-c1ccccc1C(F)(F)F [Poloppin] | – | – | – | – | – | – | increases the thermal stability | increases the thermal stability | 4.53 |
